According to patent US20240279191A1, “SMALL MOLECULE INHIBITORS OF TEAD-YAP” (The General Hospital Corporation, priority 2021, published 2024):

Assays:
[1] = system: DLD1 cells; experiment: Drug combination matrix TM2 + Trametinib, DLD1; type: cell-based, Human; conditions: 5 doses TM2 x 9 doses trametinib, day 5, Bliss, FIG. 8E
Method: (§1) The drug combination experiments were preformed using a drug combination matrix across 5 doses of TM2 (5 μM, 3-fold dilution) and 9 doses of Trametinib (10 μM, 3-fold dilution) in different tumor cell lines. Cell viability was determined at day 5 after the drugs administration by MTT. Drug synergy score was calculated followed Bliss rule. Synergy Score and Plot was generated by “Synergyfinder” package in R language.

[2] = Metabolic stability HLM; type: in vitro ADME, human
[3] = logD 7.4; conditions: pH 7.4
[4] = system: HCT116 cells; experiment: Drug combination matrix TM2 + Trametinib, HCT116; type: cell-based, Human; conditions: 5 doses TM2 x 9 doses trametinib, day 5, Bliss, FIG. 10
Method: as §1

[5] = target: Myc-TEAD1 (Homo sapiens, UniProt P28347); experiment: Inhibition of Myc-TEAD1 palmitoylation in HEK293A cells; type: cell-based; conditions: 24 h, dose-dependent, FIG. 2C
Method: HEK293A cells were seeded in 6 cm dishes overnight and transfected with plasmids using PEI reagent (1 μg/μL). Briefly, PRK5-Myc-TEAD1 (33109, Addgene) and PEI were diluted in serum-free DMEM medium in two tubes (DNA: PEI ratio=1:2). After standing still for 5 mins, mix them well and stay for another 20 mins. The mixture was then added to dishes directly.
HEK293A cells with or without TEAD overexpression were pretreated with DMSO or TM2 in medium with 10% dialyzed fetal bovine serum (DFBS) for 8 h and labeled by Alkynyl Palmitic acid (1165, Click Chemistry Tools) for another 16 h. The cells were then washed and harvested by cold DPBS (14190250, Life Technologies). The cell pellets were isolated by centrifugation (500×g, 10 min) and lysed by TEA lysis buffer (50 mM TEA-HCl, pH 7.4, 150 mM NaCl, 1% Triton X-100, 0.2% SDS, 1×Protease inhibitor-EDTA free cocktail (05892791001, Roche), phosphatase inhibitor cocktail (P0044, Sigma-Aldrich)) on ice for 30 mins. The protein concentration was determined using Bio-Rad assay and adjusted to 1 mg/mL. 100 μL of protein sample mixture was treated with 10 μL of freshly prepared “click” mixture containing 1 mM TBTA, 10 mM TCEP, 10 mM CuSO4, 1 mM TBTA Biotin-Azide and incubated for 1 h at room temperature. […] The bound proteins were eluted with a buffer containing 10 mM EDTA pH 8.2 and 95% formamide and analyzed with SDS-PAGE. […]

[6] = system: DLD1 cells; experiment: Cell proliferation assay (MTT), DLD1; conditions: CRC cell line, FIG. 8D
[7] = system: KNS62; experiment: KNS62 growth inhibition (SAR tables); type: cell-based
[8] = system: HCT116 cells; experiment: Cell proliferation assay (MTT), HCT116; conditions: CRC cell line, FIG. 8D
[9] = system: H226 cells; experiment: Cell proliferation assay (MTT), H226; conditions: Homo sapiens, NCI-H226, 144 h, read-out: IC50 H226 cell proliferation
[10] = system: YAP/TAZ-TEAD direct target genes; experiment: RNA-seq analysis in H226 cells; type: cell-based, Human; conditions: 1 μM TM2, versus K975 in H226 xenograft tumors (GSE156912), FIG. 7
Method: The NCI-H226 cells were treated with TM2 at 1 μM for 24 hours. Total RNA was isolated with RNeasy Mini Kit (74104, Qiagen). The integrity of isolated RNA was analyzed using Bioanalyzer (Agilent Technologies). and the RNA-seq libraries were made by Novogene. All libraries have at least 50 million reads sequenced (150 bp paired-end). The heatmaps were generated using different expressed genes from TM2 treatment in NCI-H226 cells with Motpheus (https://software.broadinstitute.org/morpheus/). Principle component analysis (PCA) was determined by PCA function in M3C package in R. Gene Set Enrichment Analysis (GSEA) was performed using GSEA software from Broad Institute (http://software.broadinstitute.org/gsea/index.jsp). The YAP_TAZ-TEAD Direct Target Genes set were generated with the published YAP/TAZ-TEAD target genes (Zanconato et al., 2015).

Sequence of Myc-TEAD1 (P28347 whole entry): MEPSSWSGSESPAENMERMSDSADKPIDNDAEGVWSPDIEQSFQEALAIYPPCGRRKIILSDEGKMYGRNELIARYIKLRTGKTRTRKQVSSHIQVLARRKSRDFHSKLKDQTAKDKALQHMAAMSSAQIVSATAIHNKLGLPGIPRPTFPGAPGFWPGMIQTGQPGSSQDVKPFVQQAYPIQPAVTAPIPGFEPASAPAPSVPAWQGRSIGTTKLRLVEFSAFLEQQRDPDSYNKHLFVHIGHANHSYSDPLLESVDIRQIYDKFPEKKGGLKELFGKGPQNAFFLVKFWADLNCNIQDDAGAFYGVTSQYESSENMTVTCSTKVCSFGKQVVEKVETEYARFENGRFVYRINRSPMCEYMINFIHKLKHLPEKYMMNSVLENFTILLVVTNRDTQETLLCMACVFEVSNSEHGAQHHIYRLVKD

Met stab HLM, 15 min ([2]; 15 min): 44%
Met stab HLM, 60 min ([2]; 60 min): 6%
logD [3]: 4.6
Myc-TEAD1 palmitoylation in cells (in words) [5]: dramatically suppresses
IC50 [9]: 26 nM
SMILES: O=C(Nc1ccccc1)N1CCN(C(=O)c2cccc(OCCC3CCCCC3)c2)CC1 [TM2, 4-(3-(2-cyclohexylethoxy)benzoyl)-N-phenylpiperazine-1-carboxamide]
combination with MEK inhibitor trametinib, DLD1 (in words) [1]: strong inhibitory effects and substantial synergy
combination with MEK inhibitor trametinib, HCT116 (in words) [4]: strong inhibitory effects and substantial synergy
inhibition of DLD1 cell proliferation (in words) [6]: did not exhibit strong inhibition
KNS62: value at 1 μM ([7]; 1 μM): 37
KNS62: value at 10 μM ([7]; 10 μM): 28
inhibition of HCT116 cell proliferation (in words) [8]: did not exhibit strong inhibition
block of YAP/TAZ-TEAD direct target genes (in words) [10]: more efficient to block YAP/TAZ-TEAD target genes relative to K975
